# Test results taken from patent publication US4677100A, “Cephalosporin derivatives” (Banyu Pharmaceutical Co., Ltd., priority 1984, dated 1987).
# Columns and labels:
# P. maltophilia IID 1275 = experiment: MIC, agar plate dilution method; type: cell-based, Pseudomonas maltophilia; conditions: for MIC: Stenotrophomonas maltophilia, IID1275, P. maltophilia IID 1275, 10^6 CFU/ml, Sensitivity Disk Agar, read-out: Minimum Inhibitory Concentration; for antibacterial activity relative to the compound of Reference Example: Pseudomonas maltophilia resistant to all cephalosporins
# Experimental: (§1) The minimum inhibitory concentrations (MIC: μg/ml) of the compounds of the present invention against various microorganisms were measured by an agar plate dilution method (inoculum size: 10^6 CFU/ml) by using Sensitivity Disk Agar (Nissui) in comparison with Cefotaxime and Ceftazidime as comparative compounds.
# P. aeruginosa AK109 = experiment: MIC, agar plate dilution method; type: cell-based, Pseudomonas aeruginosa; conditions: for antibacterial activity relative to the compound of Reference Example: Pseudomonas aeruginosa AK109; for MIC: Pseudomonas aeruginosa, P. aeruginosa AK109, 10^6 CFU/ml, Sensitivity Disk Agar, read-out: Minimum Inhibitory Concentration
# Experimental: as §1
# P. aeruginosa AKR17 = experiment: MIC, agar plate dilution method; type: cell-based, Pseudomonas aeruginosa; conditions: for antibacterial activity relative to the compound of Reference Example: Pseudomonas aeruginosa AKR-17, resistant to all cephalosporins including Ceftazidime; for MIC: Pseudomonas aeruginosa, P. aeruginosa AKR17, 10^6 CFU/ml, Sensitivity Disk Agar, read-out: Minimum Inhibitory Concentration
# Experimental: as §1
# P. cepacia 23 = experiment: MIC, agar plate dilution method; type: cell-based, Pseudomonas cepacia; conditions: for MIC: Burkholderia cepacia, P. cepacia 23, 10^6 CFU/ml, Sensitivity Disk Agar, read-out: Minimum Inhibitory Concentration; for antibacterial activity relative to the compound of Reference Example: Pseudomonas cepacia 23
# Experimental: as §1
# [1] = tested on: Gram-positive bacteria and Gram-negative bacteria; experiment: antibacterial activity, general statement; type: cell-based; conditions: sensitive and resistant bacteria
# Experimental: as §1
# E. coli C/Rms149 = experiment: MIC, agar plate dilution method; type: cell-based; conditions: Escherichia coli, read-out: Minimum Inhibitory Concentration
# Experimental: as §1
# E. coli CSH = experiment: MIC, agar plate dilution method; type: cell-based; conditions: Escherichia coli, read-out: Minimum Inhibitory Concentration
# Experimental: as §1
# A. calcoaceticus No. 14 = experiment: MIC, agar plate dilution method; type: cell-based; conditions: Acinetobacter calcoaceticus; for MIC: A. calcoaceticus No. 14, 10^6 CFU/ml, Sensitivity Disk Agar, read-out: Minimum Inhibitory Concentration
# Experimental: as §1
# S. aureus JS-1 = experiment: MIC, agar plate dilution method; type: cell-based; conditions: Staphylococcus aureus, JS1; S. aureus JS-1; 10^6 CFU/ml; Sensitivity Disk Agar; read-out: Minimum Inhibitory Concentration
# Experimental: as §1
# E. coli CSH2 = experiment: MIC, agar plate dilution method; type: cell-based; conditions: Escherichia coli, 10^6 CFU/ml, Sensitivity Disk Agar, read-out: Minimum Inhibitory Concentration
# Experimental: as §1
# K. pneumoniae No. 42 = experiment: MIC, agar plate dilution method; type: cell-based; conditions: Klebsiella pneumoniae; K. pneumoniae No. 42; 10^6 CFU/ml; Sensitivity Disk Agar; read-out: Minimum Inhibitory Concentration
# Experimental: as §1
# S. marcescens No. 16-2 = experiment: MIC, agar plate dilution method; type: cell-based; conditions: Serratia marcescens, NO.162; S. marcescens No. 16-2; 10^6 CFU/ml; Sensitivity Disk Agar; read-out: Minimum Inhibitory Concentration
# Experimental: as §1
# P. vulgaris No. 33 = experiment: MIC, agar plate dilution method; type: cell-based; conditions: Proteus vulgaris; P. vulgaris No. 33; 10^6 CFU/ml; Sensitivity Disk Agar; read-out: Minimum Inhibitory Concentration
# Experimental: as §1
# C. freundii No. 7 = experiment: MIC, agar plate dilution method; type: cell-based; conditions: Citrobacter freundii; C. freundii No. 7; 10^6 CFU/ml; Sensitivity Disk Agar; read-out: Minimum Inhibitory Concentration
# Experimental: as §1
# S. aureus NIHJJC-1 = experiment: MIC, agar plate dilution method; type: cell-based; conditions: Staphylococcus aureus, NIHJJC1; S. aureus NIHJJC-1; 10^6 CFU/ml; Sensitivity Disk Agar; read-out: Minimum Inhibitory Concentration
# Experimental: as §1
# E. coli W3630/Rms212 = experiment: MIC, agar plate dilution method; type: cell-based; conditions: Escherichia coli, W3630/RMS212, read-out: Minimum Inhibitory Concentration
# Experimental: as §1
# E. coli W3630/Rms213 = experiment: MIC, agar plate dilution method; type: cell-based; conditions: Escherichia coli, W3630/RMS213, read-out: Minimum Inhibitory Concentration
# Experimental: as §1
# E. coli NIHJJC-2 = experiment: MIC, agar plate dilution method; type: cell-based; conditions: Escherichia coli, NIHJJC2; E. coli NIHJJC-2; 10^6 CFU/ml; Sensitivity Disk Agar; read-out: Minimum Inhibitory Concentration
# Experimental: as §1
# E. cloaceae Nek 39 = experiment: MIC, agar plate dilution method; type: cell-based; conditions: E. cloaceae Nek 39; 10^6 CFU/ml; Sensitivity Disk Agar; read-out: Minimum Inhibitory Concentration
# Experimental: as §1
# P. vulgaris OB1043 = experiment: MIC, agar plate dilution method; type: cell-based; conditions: Proteus vulgaris; P. vulgaris OB1043; 10^6 CFU/ml; Sensitivity Disk Agar; read-out: Minimum Inhibitory Concentration
# Experimental: as §1
# E. coli ML1410/Rte16 = experiment: MIC, agar plate dilution method; type: cell-based; conditions: Escherichia coli, ML1410/RTE16, read-out: Minimum Inhibitory Concentration
# Experimental: as §1
# P. mirabilis JY10 = experiment: MIC, agar plate dilution method; type: cell-based; conditions: Proteus mirabilis; P. mirabilis JY10; 10^6 CFU/ml; Sensitivity Disk Agar; read-out: Minimum Inhibitory Concentration
# Experimental: as §1
smiles,measurement,setting,value
"CCON=C(C(=O)NC1C(=O)N2C(C(=O)[O-])=C(C[N+]3(C)Cc4cc(O)c(O)cc4C3)CSC12)c1csc(N)n1 (centres unmarked) [Ex. 5-D, 7-[(Z)-2-(2-aminothiazol-4-yl)-2-ethoxyiminoacetamido]-3-(5,6-dihydroxy-2-methyl-2-isoindolinium) methyl-3-cephem-4-carboxylate]",MIC,P. maltophilia IID 1275,25 µg/mL
same,antibacterial activity relative to the compound of Reference Example,P. aeruginosa AK109,at least 16 times
same,MIC,P. aeruginosa AK109,0.1 µg/mL
same,antibacterial activity relative to the compound of Reference Example,P. aeruginosa AKR17,at least 32 times
same,MIC,P. aeruginosa AKR17,0.39 µg/mL
same,MIC,P. cepacia 23,0.1 µg/mL
same,antibacterial activity relative to the compound of Reference Example,P. cepacia 23,at least 32 times
same,antibacterial activity (in words),[1],particularly strong antibacterial activities
same,MIC,E. coli C/Rms149,0.1 µg/mL
same,MIC,E. coli CSH,0.2 µg/mL
same,antibacterial activity relative to the compound of Reference Example,A. calcoaceticus No. 14,at least 32 times
same,MIC,A. calcoaceticus No. 14,0.2 µg/mL
same,MIC,S. aureus JS-1,12.5 µg/mL
same,MIC,E. coli CSH2,0.1 µg/mL
same,MIC,K. pneumoniae No. 42,0.1 µg/mL
same,MIC,S. marcescens No. 16-2,3.12 µg/mL
same,MIC,P. vulgaris No. 33,0.2 µg/mL
same,MIC,C. freundii No. 7,6.25 µg/mL
same,MIC,S. aureus NIHJJC-1,3.12 µg/mL
same,MIC,E. coli W3630/Rms212,≤ 0.05 µg/mL
same,MIC,E. coli W3630/Rms213,0.2 µg/mL
same,MIC,E. coli NIHJJC-2,≤ 0.05 µg/mL
same,MIC,E. cloaceae Nek 39,≤ 0.05 µg/mL
same,MIC,P. vulgaris OB1043,0.78 µg/mL
same,MIC,E. coli ML1410/Rte16,0.1 µg/mL
same,MIC,P. mirabilis JY10,0.2 µg/mL
"CC(C)(ON=C(C(=O)NC1C(=O)N2C(C(=O)[O-])=C(C[N+]3(C)Cc4cc(O)c(O)cc4C3)CSC12)c1csc(N)n1)C(=O)O (centres unmarked) [Ex. 7-E, 7-[(Z)-2-(2-aminothiazol-4-yl)-2-(1-carboxy-1-methylethoxyimino)acetamido]-3-(5,6-dihydroxy-methyl-2-methyl-2-isoindolinium)methyl-3-cephem-4-carboxylate]",antibacterial activity relative to the compound of Reference Example,P. maltophilia IID 1275,at least twice as strong
same,MIC,P. maltophilia IID 1275,3.12 µg/mL
same,antibacterial activity relative to the compound of Reference Example,P. aeruginosa AK109,at least 16 times
same,MIC,P. aeruginosa AK109,≤ 0.05 µg/mL
same,antibacterial activity relative to the compound of Reference Example,P. aeruginosa AKR17,at least 32 times
same,MIC,P. aeruginosa AKR17,≤ 0.05 µg/mL
same,MIC,P. cepacia 23,≤ 0.05 µg/mL
same,antibacterial activity relative to the compound of Reference Example,P. cepacia 23,at least 32 times
same,antibacterial activity (in words),[1],particularly strong antibacterial activities
same,MIC,E. coli C/Rms149,≤ 0.05 µg/mL
same,MIC,E. coli CSH,0.1 µg/mL
same,antibacterial activity relative to the compound of Reference Example,A. calcoaceticus No. 14,at least 32 times
same,MIC,A. calcoaceticus No. 14,0.1 µg/mL
same,MIC,S. aureus JS-1,> 25 µg/mL
same,MIC,E. coli CSH2,≤ 0.05 µg/mL
same,MIC,K. pneumoniae No. 42,≤ 0.05 µg/mL
same,MIC,S. marcescens No. 16-2,0.39 µg/mL
same,MIC,P. vulgaris No. 33,0.2 µg/mL
same,MIC,C. freundii No. 7,0.78 µg/mL
same,MIC,S. aureus NIHJJC-1,25 µg/mL
same,MIC,E. coli W3630/Rms212,≤ 0.05 µg/mL
same,MIC,E. coli W3630/Rms213,≤ 0.05 µg/mL
same,MIC,E. coli NIHJJC-2,≤ 0.05 µg/mL
same,MIC,E. cloaceae Nek 39,≤ 0.05 µg/mL
same,MIC,P. vulgaris OB1043,0.1 µg/mL
same,MIC,E. coli ML1410/Rte16,≤ 0.05 µg/mL
same,MIC,P. mirabilis JY10,0.1 µg/mL
"C[N+]1(CC2=C(C(=O)[O-])N3C(=O)C(NC(=O)C(=NOCC(=O)O)c4csc(N)n4)C3SC2)Cc2cc(O)c(O)cc2C1 (centres unmarked) [Ex. 8-E, 7-[(Z)-2-(2-aminothiazol-4-yl)-2-carboxymethoxyimino)acetamido]-3-(5,6-dihydroxy-2-methyl-2-isoindolinium)methyl-3-cephem-4-carboxylate]",antibacterial activity relative to the compound of Reference Example,P. maltophilia IID 1275,at least twice as strong
same,MIC,P. maltophilia IID 1275,6.25 µg/mL
same,antibacterial activity relative to the compound of Reference Example,P. aeruginosa AK109,at least 16 times
same,MIC,P. aeruginosa AK109,≤ 0.05 µg/mL
same,antibacterial activity relative to the compound of Reference Example,P. aeruginosa AKR17,at least 32 times
same,MIC,P. aeruginosa AKR17,0.2 µg/mL
same,MIC,P. cepacia 23,≤ 0.05 µg/mL
same,antibacterial activity relative to the compound of Reference Example,P. cepacia 23,at least 32 times
same,antibacterial activity (in words),[1],particularly strong antibacterial activities
same,MIC,E. coli C/Rms149,≤ 0.05 µg/mL
same,MIC,E. coli CSH,0.1 µg/mL
same,antibacterial activity relative to the compound of Reference Example,A. calcoaceticus No. 14,at least 32 times
same,MIC,A. calcoaceticus No. 14,≤ 0.05 µg/mL
same,MIC,S. aureus JS-1,> 25 µg/mL
same,MIC,E. coli CSH2,≤ 0.05 µg/mL
same,MIC,K. pneumoniae No. 42,≤ 0.05 µg/mL
same,MIC,S. marcescens No. 16-2,0.78 µg/mL
same,MIC,P. vulgaris No. 33,0.1 µg/mL
same,MIC,C. freundii No. 7,0.78 µg/mL
same,MIC,S. aureus NIHJJC-1,12.5 µg/mL
same,MIC,E. coli W3630/Rms212,≤ 0.05 µg/mL
same,MIC,E. coli W3630/Rms213,≤ 0.05 µg/mL
same,MIC,E. coli NIHJJC-2,≤ 0.05 µg/mL
same,MIC,E. cloaceae Nek 39,≤ 0.05 µg/mL
same,MIC,P. vulgaris OB1043,0.2 µg/mL
same,MIC,E. coli ML1410/Rte16,≤ 0.05 µg/mL
same,MIC,P. mirabilis JY10,0.2 µg/mL
"CC(C)ON=C(C(=O)NC1C(=O)N2C(C(=O)[O-])=C(C[N+]3(C)Cc4cc(O)c(O)cc4C3)CSC12)c1csc(N)n1 (centres unmarked) [Ex. 9-C, 7-[(Z)-2-(2-aminothiazol-4-yl)-2-isopropoxyiminoacetamido]-3-(5,6-dihydroxy-2-methyl-2-isoindolinium) methyl-3-cephem-4-carboxylate]",antibacterial activity relative to the compound of Reference Example,P. maltophilia IID 1275,at least twice as strong
same,MIC,P. maltophilia IID 1275,3.12 µg/mL
same,antibacterial activity relative to the compound of Reference Example,P. aeruginosa AK109,at least 16 times
same,MIC,P. aeruginosa AK109,≤ 0.05 µg/mL
same,antibacterial activity relative to the compound of Reference Example,P. aeruginosa AKR17,at least 32 times
same,MIC,P. aeruginosa AKR17,0.39 µg/mL
same,MIC,P. cepacia 23,≤ 0.05 µg/mL
same,antibacterial activity relative to the compound of Reference Example,P. cepacia 23,at least 32 times
same,antibacterial activity (in words),[1],particularly strong antibacterial activities
same,MIC,E. coli C/Rms149,≤ 0.05 µg/mL
same,MIC,E. coli CSH,0.1 µg/mL
same,antibacterial activity relative to the compound of Reference Example,A. calcoaceticus No. 14,at least 32 times
same,MIC,A. calcoaceticus No. 14,0.2 µg/mL
same,MIC,S. aureus JS-1,12.5 µg/mL
same,MIC,E. coli CSH2,≤ 0.05 µg/mL
same,MIC,K. pneumoniae No. 42,0.1 µg/mL
same,MIC,S. marcescens No. 16-2,0.78 µg/mL
same,MIC,P. vulgaris No. 33,0.1 µg/mL
same,MIC,C. freundii No. 7,3.12 µg/mL
same,MIC,S. aureus NIHJJC-1,6.25 µg/mL
same,MIC,E. coli W3630/Rms212,≤ 0.05 µg/mL
same,MIC,E. coli W3630/Rms213,≤ 0.05 µg/mL
same,MIC,E. coli NIHJJC-2,≤ 0.05 µg/mL
same,MIC,E. cloaceae Nek 39,≤ 0.05 µg/mL
same,MIC,P. vulgaris OB1043,0.2 µg/mL
same,MIC,E. coli ML1410/Rte16,≤ 0.05 µg/mL
same,MIC,P. mirabilis JY10,0.1 µg/mL
